Experimental data as given in US8541588B2, “Sulfonamide derivatives” (Pfizer Limited, priority 2009, dated 2013).

Molecular target: T1, Nav1.7 (or SCN9A) channel; HEK cells stably transfected with hSCN9A (Homo sapiens, UniProt Q15858)
T1 construct: expressed in transfected cells
Experiment: Nav1.7 block, PatchXpress 7000 automated whole-cell voltage clamp, estimated IC50 (EIC50)
Assay type: cell-based
Conditions: estimated IC50; hSCN9A HEK cells, PatchXpress platform; Examples 283-814

T1 sequence (Q15858 whole entry): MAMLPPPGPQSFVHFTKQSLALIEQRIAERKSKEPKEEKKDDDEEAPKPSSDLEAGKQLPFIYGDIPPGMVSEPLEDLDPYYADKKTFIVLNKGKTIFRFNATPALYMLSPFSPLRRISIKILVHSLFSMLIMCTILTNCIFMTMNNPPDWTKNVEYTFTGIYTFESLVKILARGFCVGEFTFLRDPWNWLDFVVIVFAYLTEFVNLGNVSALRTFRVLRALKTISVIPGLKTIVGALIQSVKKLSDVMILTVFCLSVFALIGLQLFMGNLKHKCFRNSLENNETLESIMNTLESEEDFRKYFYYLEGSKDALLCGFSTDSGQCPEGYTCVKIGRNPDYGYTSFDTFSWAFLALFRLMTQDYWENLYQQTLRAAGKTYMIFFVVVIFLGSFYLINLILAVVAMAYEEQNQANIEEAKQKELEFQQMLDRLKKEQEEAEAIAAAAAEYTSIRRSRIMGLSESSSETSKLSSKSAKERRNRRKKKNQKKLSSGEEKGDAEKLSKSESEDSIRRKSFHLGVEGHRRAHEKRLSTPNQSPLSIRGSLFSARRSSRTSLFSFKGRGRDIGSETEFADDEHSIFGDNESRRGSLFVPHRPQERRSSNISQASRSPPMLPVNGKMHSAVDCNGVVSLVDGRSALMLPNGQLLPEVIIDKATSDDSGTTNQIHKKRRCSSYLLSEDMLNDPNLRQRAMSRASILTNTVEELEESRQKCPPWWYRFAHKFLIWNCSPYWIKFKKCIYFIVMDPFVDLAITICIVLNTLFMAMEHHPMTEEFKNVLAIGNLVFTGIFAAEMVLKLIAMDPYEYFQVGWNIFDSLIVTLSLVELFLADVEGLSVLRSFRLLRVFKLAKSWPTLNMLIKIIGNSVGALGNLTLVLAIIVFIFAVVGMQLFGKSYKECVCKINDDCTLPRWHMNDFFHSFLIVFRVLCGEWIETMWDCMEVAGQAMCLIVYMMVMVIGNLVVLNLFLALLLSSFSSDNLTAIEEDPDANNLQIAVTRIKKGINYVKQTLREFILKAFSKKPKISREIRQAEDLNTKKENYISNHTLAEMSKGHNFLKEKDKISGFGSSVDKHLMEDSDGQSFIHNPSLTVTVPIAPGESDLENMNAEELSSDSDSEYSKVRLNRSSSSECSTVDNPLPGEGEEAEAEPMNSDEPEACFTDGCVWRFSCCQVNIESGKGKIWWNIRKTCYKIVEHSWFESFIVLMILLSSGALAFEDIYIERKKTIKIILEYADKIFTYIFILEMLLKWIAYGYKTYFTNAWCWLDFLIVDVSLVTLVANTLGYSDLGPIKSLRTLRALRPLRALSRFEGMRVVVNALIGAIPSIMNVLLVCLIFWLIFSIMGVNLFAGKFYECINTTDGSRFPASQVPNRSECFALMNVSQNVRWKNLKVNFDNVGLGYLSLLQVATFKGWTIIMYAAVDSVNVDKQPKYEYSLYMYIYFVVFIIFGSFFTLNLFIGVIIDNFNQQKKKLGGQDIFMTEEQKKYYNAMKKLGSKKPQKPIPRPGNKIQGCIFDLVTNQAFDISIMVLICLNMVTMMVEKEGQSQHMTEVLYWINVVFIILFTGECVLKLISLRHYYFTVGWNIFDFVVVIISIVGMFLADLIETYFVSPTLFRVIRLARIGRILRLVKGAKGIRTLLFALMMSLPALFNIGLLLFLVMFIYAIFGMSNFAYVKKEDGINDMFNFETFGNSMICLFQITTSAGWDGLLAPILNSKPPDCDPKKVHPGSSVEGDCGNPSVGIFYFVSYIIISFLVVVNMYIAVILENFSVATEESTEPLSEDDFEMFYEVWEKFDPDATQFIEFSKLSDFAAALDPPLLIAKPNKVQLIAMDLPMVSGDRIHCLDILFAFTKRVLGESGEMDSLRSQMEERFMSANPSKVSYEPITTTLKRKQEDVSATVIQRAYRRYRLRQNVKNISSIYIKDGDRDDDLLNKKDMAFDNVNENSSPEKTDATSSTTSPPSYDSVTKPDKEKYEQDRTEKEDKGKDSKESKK

| SMILES | IC50 [nM] |
| --- | --- |
| CCn1nc(C(F)(F)F)cc1-c1cccc(Oc2ccc(S(=O)(=O)Nc3nccs3)cc2C#N)c1 [Example 547, 3-cyano-4-{3-[1-ethyl-3-(trifluoromethyl)-1H-pyrazol-5-yl]phenoxy}-N-1,3-thiazol-2-ylbenzenesulfonamide] | 120 |
| CCn1nc(C(C)(C)C#N)cc1-c1ccc(Oc2ccc(S(=O)(=O)Nc3nccs3)cc2C#N)cc1 [Example 548, 3-cyano-4-{4-[3-(1-cyano-1-methylethyl)-1-ethyl-1H-pyrazol-5-yl]phenoxy}-N-1,3-thiazol-2-ylbenzenesulfonamide] | 410 |
| N#Cc1cc(S(=O)(=O)Nc2nccs2)ccc1Oc1cccc(-c2cc(C(F)(F)F)nn2CCO)c1 [Example 549, 3-cyano-4-{3-[1-(2-hydroxyethyl)-3-(trifluoromethyl)-1H-pyrazol-5-yl]phenoxy}-N-1,3-thiazol-2-ylbenzenesulfonamide] | 160 |
| CN(C)CCn1nc(C(F)(F)F)cc1-c1cccc(Oc2ccc(S(=O)(=O)Nc3nccs3)cc2C#N)c1 [Example 550, 3-cyano-4-(3-{1-[2-(dimethylamino)ethyl]-3-(trifluoromethyl)-1H-pyrazol-5-yl}phenoxy)-N-1,3-thiazol-2-ylbenzenesulfonamide] | 200 |
| N#Cc1cc(S(=O)(=O)Nc2nccs2)ccc1Oc1ccc(-c2cc(C(F)(F)F)nn2CCCF)cc1F [Example 551, 3-cyano-4-{2-fluoro-4-[1-(3-fluoropropyl)-3-(trifluoromethyl)-1H-pyrazol-5-yl]phenoxy}-N-1,3-thiazol-2-ylbenzenesulfonamide] | 71 |
| Nc1cc(-c2cc(OC(F)(F)F)ccc2Oc2cc(F)c(S(=O)(=O)Nc3ncns3)cc2Cl)ccn1 [Example 553, 4-[2-(2-aminopyridin-4-yl)-4-(trifluoromethoxy)phenoxy]-5-chloro-2-fluoro-N-1,2,4-thiadiazol-5-ylbenzenesulfonamide] | 1.7 |
| Nc1ccnc(-c2cc(Cl)ccc2Oc2cc(F)c(S(=O)(=O)Nc3ncns3)cc2Cl)c1 [Example 554, 4-[2-(4-aminopyridin-2-yl)-4-chlorophenoxy]-5-chloro-2-fluoro-N-1,2,4-thiadiazol-5-ylbenzenesulfonamide] | 120 |
| Nc1cccc(-c2cc(C(F)(F)F)ccc2Oc2cc(F)c(S(=O)(=O)Nc3ncns3)cc2F)n1 [Example 555, 4-[2-(6-aminopyridin-2-yl)-4-(trifluoromethyl)phenoxy]-2,5-difluoro-N-1,2,4-thiadiazol-5-ylbenzenesulfonamide] | 14 |
| Nc1cc(-c2cc(C(F)(F)F)ccc2Oc2cc(F)c(S(=O)(=O)Nc3ncns3)cc2F)ccn1 [Example 556, 4-[2-(2-aminopyridin-4-yl)-4-(trifluoromethyl)phenoxy]-2,5-difluoro-N-1,2,4-thiadiazol-5-ylbenzenesulfonamide] | 2.3 |
| Nc1cc(-c2cc(C(F)(F)F)ccc2Oc2cc(F)c(S(=O)(=O)Nc3ncns3)cc2Cl)ccn1 [Example 557, 4-[2-(2-aminopyridin-4-yl)-4-(trifluoromethyl)phenoxy]-5-chloro-2-fluoro-N-1,2,4-thiadiazol-5-ylbenzenesulfonamide] | 0.8 |
| N#Cc1cc(S(=O)(=O)Nc2nccs2)ccc1Oc1ccc(-c2cc(C(F)(F)F)nn2C2CNC2)cc1 [Example 558, 4-{4-[1-azetidin-3-yl-3-(trifluoromethyl)-1H-pyrazol-5-yl]phenoxy}-3-cyano-N-1,3-thiazol-2-ylbenzenesulfonamide] | 39 |
| N#Cc1cc(S(=O)(=O)Nc2ncc(Cl)s2)ccc1Oc1ccc(Cl)cc1-c1ccnn1C1CNC1 [Example 559, 4-[2-(1-azetidin-3-yl-1H-pyrazol-5-yl)-4-chlorophenoxy]-N-(5-chloro-1,3-thiazol-2-yl)-3-cyanobenzenesulfonamide] | 0.7 |
| O=S(=O)(Nc1ccncn1)c1cc(Cl)c(Oc2ccc(Cl)cc2C2CCNCC2)cc1F [Example 560, 5-chloro-4-(4-chloro-2-piperidin-4-ylphenoxy)-2-fluoro-N-pyrimidin-4-ylbenzenesulfonamide] | 78 |
| O=S(=O)(Nc1ccc(F)cn1)c1cc(F)c(Oc2ccc(Cl)cc2C2CCNCC2)cc1F [Example 561, 4-(4-chloro-2-piperidin-4-ylphenoxy)-2,5-difluoro-N-(5-fluoropyridin-2-yl)benzenesulfonamide] | 380 |
| COCCn1nccc1-c1cc(Cl)ccc1Oc1ccc(S(=O)(=O)Nc2ncns2)cc1C#N [Example 562, 4-{4-chloro-2-[1-(2-methoxyethyl)-1H-pyrazol-5-yl]phenoxy}-3-cyano-N-1,2,4-thiadiazol-5-ylbenzenesulfonamide] | 17 |
| COCCn1nccc1-c1cc(Cl)ccc1Oc1cc(F)c(S(=O)(=O)Nc2nncs2)cc1Cl [Example 563, 5-chloro-4-{4-chloro-2-[1-(2-methoxyethyl)-1H-pyrazol-5-yl]phenoxy}-2-fluoro-N-1,3,4-thiadiazol-2-ylbenzenesulfonamide] | 130 |
| O=S(=O)(Nc1nncs1)c1cc(Cl)c(Oc2ccc(Cl)cc2-c2cn[nH]c2)cc1F [Example 564, 5-chloro-4-[4-chloro-2-(1H-pyrazol-4-yl)phenoxy]-2-fluoro-N-1,3,4-thiadiazol-2-ylbenzenesulfonamide] | 9.2 |
| Cc1nn(C)c(C)c1Cc1ccc(Oc2ccc(S(=O)(=O)Nc3ccc(F)cn3)cc2C#N)cc1 [Example 565, 3-cyano-N-(5-fluoropyridin-2-yl)-4-{4-[(1,3,5-trimethyl-1H-pyrazol-4-yl)methyl]phenoxy}benzenesulfonamide] | 54000 |

| SMILES | IC50 [nM] |
| --- | --- |
| N#Cc1cc(S(=O)(=O)Nc2ccc(F)cn2)ccc1Oc1ccc(CN2CCC2)c(F)c1 [Example 566, 4-[4-(azetidin-1-ylmethyl)-3-fluorophenoxy]-3-cyano-N-(5-fluoropyridin-2-yl)benzenesulfonamide] | >30000 |
| CCc1nnc(C)n1-c1ccc(Oc2ccc(S(=O)(=O)Nc3ccc(F)cn3)cc2C#N)cc1 [Example 568, 3-cyano-4-[4-(3-ethyl-5-methyl-4H-1,2,4-triazol-4-yl)phenoxy]-N-(5-fluoropyridin-2-yl)benzenesulfonamide] | >3000 |
| N#Cc1cc(S(=O)(=O)Nc2ccc(F)cn2)ccc1Oc1ccc(-n2ccnc2)cc1 [Example 569, 3-cyano-N-(5-fluoropyridin-2-yl)-4-[4-(1H-imidazol-1-yl)phenoxy]benzenesulfonamide] | >3000 |
| CCNC(=O)c1ccc(-c2cccc(Oc3ccc(S(=O)(=O)Nc4ccc(F)cn4)cc3C#N)c2)cc1 [Example 570, 3′-(2-cyano-4-{[(5-fluoropyridin-2-yl)amino]sulfonyl}phenoxy)-N-ethylbiphenyl-4-carboxamide] | 8600 |
| Cc1cc(-c2ccccc2Oc2ccc(S(=O)(=O)Nc3ccc(F)cn3)cc2C#N)sn1 [Example 571, 3-cyano-N-(5-fluoropyridin-2-yl)-4-[2-(3-methylisothiazol-5-yl)phenoxy]benzenesulfonamide] | 10000 |
| Cc1nc(-c2ccccc2Oc2ccc(S(=O)(=O)Nc3ccc(F)cn3)cc2C#N)cs1 [Example 572, 3-cyano-N-(5-fluoropyridin-2-yl)-4-[2-(2-methyl-1,3-thiazol-4-yl)phenoxy]benzenesulfonamide] | >30000 |
| CN1CCC(c2cccc(Oc3ccc(S(=O)(=O)Nc4ccc(F)cn4)cc3C#N)c2)CC1 [Example 573, 3-cyano-N-(5-fluoropyridin-2-yl)-4-[3-(1-methylpiperidin-4-yl)phenoxy]benzenesulfonamide] | 7300 |
| Cc1nc(-c2cccc(Oc3ccc(S(=O)(=O)Nc4ccc(F)cn4)cc3C#N)c2)no1 [Example 574, 3-cyano-N-(5-fluoropyridin-2-yl)-4-[3-(5-methyl-1,2,4-oxadiazol-3-yl)phenoxy]benzenesulfonamide] | >3000 |
| COc1cc(Oc2ccc(S(=O)(=O)Nc3ccc(F)cn3)cc2C#N)ccc1-n1cnc(C)c1 [Example 575, 3-cyano-N-(5-fluoropyridin-2-yl)-4-[3-methoxy-4-(4-methyl-1H-imidazol-1-yl)phenoxy]benzenesulfonamide] | >30000 |
| Cc1nnc(-c2ccc(Oc3ccc(S(=O)(=O)Nc4ccc(F)cn4)cc3C#N)cc2)o1 [Example 576, 3-cyano-N-(5-fluoropyridin-2-yl)-4-[4-(5-methyl-1,3,4-oxadiazol-2-yl)phenoxy]benzenesulfonamide] | >3000 |
| Cc1cnsc1-c1ccccc1Oc1ccc(S(=O)(=O)Nc2ccc(F)cn2)cc1C#N [Example 577, 3-cyano-N-(5-fluoropyridin-2-yl)-4-[2-(4-methylisothiazol-5-yl)phenoxy]benzenesulfonamide] | 11000 |
| COc1cc(Oc2ccc(S(=O)(=O)Nc3ccc(F)cn3)cc2C#N)ccc1-n1ccnc1C [Example 578, 3-cyano-N-(5-fluoropyridin-2-yl)-4-[3-methoxy-4-(2-methyl-1H-imidazol-1-yl)phenoxy]benzenesulfonamide] | 5500 |
| COc1cc(Oc2ccc(S(=O)(=O)Nc3ccc(F)cn3)cc2C#N)ccc1-n1cccn1 [Example 579, 3-cyano-N-(5-fluoropyridin-2-yl)-4-[3-methoxy-4-(1H-pyrazol-1-yl)phenoxy]benzenesulfonamide] | >3000 |
| N#Cc1cc(S(=O)(=O)Nc2ccc(F)cn2)ccc1Oc1ccccc1-c1nnco1 [Example 580, 3-cyano-N-(5-fluoropyridin-2-yl)-4-[2-(1,3,4-oxadiazol-2-yl)phenoxy]benzenesulfonamide] | 6900 |
| N#Cc1cc(S(=O)(=O)Nc2ccc(F)cn2)ccc1Oc1ccc(-c2cocn2)cc1 [Example 581, 3-cyano-N-(5-fluoropyridin-2-yl)-4-[4-(1,3-oxazol-4-yl)phenoxy]benzenesulfonamide] | >3000 |
| N#Cc1cc(S(=O)(=O)Nc2ncc(I)s2)ccc1Oc1ccc(Cl)cc1-c1cn[nH]c1 [Example 582, 4-[4-Chloro-2-(1H-pyrazol-4-yl)phenoxy]-3-cyano-N-(5-iodo-1,3-thiazol-2-yl)benzenesulfonamide] | 34 |
| N#Cc1cc(S(=O)(=O)Nc2ncc(Cl)s2)ccc1Oc1ccc(Cl)cc1-c1cn[nH]c1N [Example 583, 4-[2-(5-Amino-1H-pyrazol-4-yl)-4-chlorophenoxy]-N-(5-chloro-1,3-thiazol-2-yl)-3-cyanobenzenesulfonamide] | 13 |
